The source of these data is the supplement of paper PMC3974653.

In this test the test system is MTT (mouse pheochromocytoma). Briefly: IC50 of cell viability (ATP content). The note with it: (24 or 48 h). In a few lines: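 Library compounds in DMSO (23 nl by pintool, 8 concentrations, final 0.5 nM to 46 µM) were applied for 24 or 48 hrs to MTT mouse pheochromocytoma cells that had been cultured overnight at 37°C, 5% CO2 in white 1536-well plates. Cell viability was measured by CellTiter-Glo ATP luminescence, read after 15 minutes, with positive-control wells set at 100% and DMSO wells at 0%. A four-parameter logistic fit of the normalised signals yielded the IC50.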

Where a name gives a salt, the structure may show the parent alone.

Regarding `CNC(C)C(O)c1ccc(O)cc1` (stereo not drawn) [P-HYDROXYEPHEDRINE HYDROCHLORIDE], the “IC50 of cell viability” value is above 46 µM.

On to `CC1CC2C(CC[C@]3(C)C2CC[C@@]3(OC(C)=O)C(C)=O)[C@]\4(C)CCC(=O)\C=C14` (stereo partly drawn) [MEDROXYPROGESTERONE ACETATE], for which the “IC50 of cell viability” value is above 46 µM.

In the case of `O=C(CCBr)N1CCN(C(=O)CCBr)CC1` [PIPOBROMAN], the “IC50 of cell viability” value is above 46 µM.

For the molecule `FC(F)OC(Cl)C(F)(F)F` (stereo not drawn) [ISOFLURANE], the “IC50 of cell viability” value is above 46 µM.

With `COc1ccc2c(c1)c(CC(=O)OCC(=O)O)c(C)n2C(=O)c1ccc(Cl)cc1` [Acemetacin], the “IC50 of cell viability” value is above 46 µM.

For `COC(=O)[C@@H](N)CS` [Mecisteina], the “IC50 of cell viability” value is above 46 µM.

On to `O.O=C([O-])CC([S][Au])C(=O)[O-].[Na+].[Na+]` (stereo not drawn) [Sodium aurothiomalate hydrate], for which the “IC50 of cell viability” value was above 46 µM.

Consider `C[C@H](N)C(=O)c1ccccc1` [(S)-(-)-Cathinone], for which the “IC50 of cell viability” value was above 46 µM.

With `CC(C)(C)NC(=O)[C@@H]1CN(Cc2cccnc2)CCN1C[C@@H](O)C[C@@H](Cc1ccccc1)C(=O)N[C@H]1c2ccccc2C[C@H]1O` [INDINAVIR SULFATE], the “IC50 of cell viability” value is above 46 µM.

With `Oc1cc(Cl)c(Cl)cc1Cl` [2,4,5-Trichlorophenol], the “IC50 of cell viability” value was above 46 µM.

For the molecule `O=C(OCCO)c1ccccc1O` [2-Hydroxyethyl salicylate], the “IC50 of cell viability” value was above 46 µM.

Take `CC(=O)O[C@H]1CC[C@]\2(C)C3CC[C@@]\4(C)C(C\C=C4C5=CC=CN=C5)C3C\C=C2C1` (stereo partly drawn) [Abiraterone Acetate]: the “IC50 of cell viability” value was above 46 µM.

In the case of `CC(O)C1CCC2C3CCC4CC(O)CCC4(C)C3CCC12C` (stereo not drawn) [Pregnandiol], the “IC50 of cell viability” value was above 46 µM.

`CN1CC(=O)\N=C1\NC(=O)NC2=CC(=CC=C2)Cl` [Fenobam]: the “IC50 of cell viability” value was above 46 µM.

For the molecule `C[S+](=O)([O-])c1ccc([C@H](O)[C@H](CF)NC(=O)C(Cl)Cl)cc1` [Florfenicol], the “IC50 of cell viability” value was above 46 µM.

`S=C=S` [Carbon disulfide]: the “IC50 of cell viability” value was above 46 µM.

`O=[N+]([O-])c1c(Cl)cccc1-c1c[nH]cc1Cl` [PYRROLNITRIN]: the “IC50 of cell viability” value was above 46 µM.

Regarding `c1cc2c(c(N3CCNCC3)c1)OCCO2` [ELTOPRAZINUM], the “IC50 of cell viability” value is above 46 µM.

In the case of `CCN(CC)CC1CCCCN1CC(=O)N1c2ccccc2C(=O)Nc2cccnc21` (stereo not drawn) [AF-DX 116], the “IC50 of cell viability” value was above 46 µM.

In the case of `CN(CC(=O)[NH+]1CCOCC1)Cc1c(Cl)cccc1NC(=O)c1ccccc1` [Fominoben hydrochloride], the “IC50 of cell viability” value was above 46 µM.

For the molecule `C[C@]12CC[C@H]3[C@@H](CC/C4=C/C(=O)CC[C@]34C)[C@@H]1CC[C@H]2O` [Testosterone], the “IC50 of cell viability” value is above 46 µM.

Take `O=C1c2cccc3c2[C@@H](CCC3)CN1[C@@H]1CN2CCC1CC2` [PALONOSETRON HYDROCHLORIDE]: the “IC50 of cell viability” value is above 46 µM.

For the molecule `CC/1=C/C(=O)[N-][S](=O)(=O)O1` [Acesulfame K], the “IC50 of cell viability” value is above 46 µM.

Turning to `O.O=S(=O)([O-])CC(S)CS.[Na+]` (stereo not drawn) [2,3-DIMERCAPTOPROPANE-1-SULFONATE SODIUM], the “IC50 of cell viability” value is above 46 µM.

In the case of `CCCCCCCCCCCCCCCCSCC(COC)COP(=O)([O-])OCC[N+](C)(C)C` (stereo not drawn) [Ilmofosine], the “IC50 of cell viability” value was above 46 µM.

For `CC[C@](C)(CN(C)C)OC(=O)c1ccccc1` [Amyleine hydrochloride], the “IC50 of cell viability” value is above 46 µM.

As to `CCN(CC)CC#CCOC(=O)[C@@](O)(c1ccccc1)C1CCCCC1` [Oxybutynin chloride], the “IC50 of cell viability” value is above 46 µM.

In the case of `CC(C)(C(=O)O)c1ccc(C(O)CCCN2CCC(C(O)(c3ccccc3)c3ccccc3)CC2)cc1` (stereo not drawn) [Fexofenadine], the “IC50 of cell viability” value was above 46 µM.

Take `O=C(CCCN1CCN(c2ccc(F)cc2)CC1)NC1c2ccccc2CSc2ccccc21` (stereo not drawn) [MONATEPIL MALEATE]: the “IC50 of cell viability” value is above 46 µM.

For the molecule `C[C@H](N)C(=O)N[C@@H](C)P(=O)(O)O` [ALAFOSFALINUM], the “IC50 of cell viability” value was above 46 µM.

As for `COC1C\C(C[N+](C)(C)C1)=C(/C2=CC=CS2)C3=CC=CS3` (stereo not drawn) [TIMEPIDIUM BROMIDE], the “IC50 of cell viability” value is above 46 µM.

Take `O=C(Cn1ccnc1[N+](=O)[O-])NCCO` [ETANIDAZOLE]: the “IC50 of cell viability” value was above 46 µM.

`C=Cc1ccc(S(=O)(=O)[O-])cc1`: the “IC50 of cell viability” value was above 46 µM.

Turning to `CO[C@H]1[C@@H](O)[C@H](N)[C@@H](O[C@H]2O[C@@H]([C@H](C)N)CC[C@H]2N)[C@H](O)[C@@H]1N(C)C(=O)CN` [ASTROMICIN SULPHATE], the “IC50 of cell viability” value was above 46 µM.

For `CC(C)(N)Cc1ccc(Cl)cc1` [Chlorphentermine hydrochloride], the “IC50 of cell viability” value is above 46 µM.

Consider `CC(C)CCC[C@@H](C)[C@H]1CC[C@H]2[C@@H]3CC=C4C[C@@H](O)CC[C@]4(C)[C@H]3CC[C@]12C` [CHOLESTEROL], for which the “IC50 of cell viability” value is above 46 µM.

As for `CC(=O)N[C@@H](CCC(=O)O)C(=O)O` [DEANOLI ACEGLUMAS], the “IC50 of cell viability” value is above 46 µM.

Take `O=C(NCCCN1CCOCC1)c1ccc(Cl)cc1` [Eprobemida]: the “IC50 of cell viability” value is above 46 µM.

In the case of `CNC[C@H](O)c1ccc(O)cc1` (racemic) [(+,-)-Synephrine], the “IC50 of cell viability” value is above 46 µM.

As for `C=C1N[C@]2(C(=O)COC(C)=O)[C@@H](C[C@H]3[C@@H]4CCC5=CC(=O)C=C[C@]5(C)[C@H]4[C@@H](O)C[C@@]32C)O1` [DEFLAZACORT], the “IC50 of cell viability” value was above 46 µM.

As for `COc1ccc(C(=O)CC(=O)c2ccc(C(C)(C)C)cc2)cc1` [AVOBENZONE], the “IC50 of cell viability” value is above 46 µM.

Consider `O=C(O)C(O)[C@@H](O)[C@H](O)C(=O)CO` (stereo in doubt) [D-XYLO-5-HEXULOSONIC ACID, CALCIUM SALT], for which the “IC50 of cell viability” value was above 46 µM.

As to `NC(=O)C1(N2CCCCC2)CCN(CCCC(=O)c2ccc(F)cc2)CC1` [PIPAMPERONE HYDROCHLORIDE], the “IC50 of cell viability” value is above 46 µM.

Consider `CCOC1=CC\2=C(NC(C)(C)\C=C2C)C=C1` [Ethoxyquin], for which the “IC50 of cell viability” value was above 46 µM.

Regarding `CC[C@H](c1ccc(O)cc1)[C@@H](CC)c1ccc(O)cc1` [Hexestrol], the “IC50 of cell viability” value is above 46 µM.

As for `CC/C(=C(/CC)c1ccc(OP(=O)(O)O)cc1)c1ccc(OP(=O)(O)O)cc1` [DIETHYLSTILBESTROL DIPHOSPHATE], the “IC50 of cell viability” value was above 46 µM.

In the case of `Nc1ccc(N)cc1` [P-PHENYLENEDIAMINE], the “IC50 of cell viability” value was above 46 µM.

As to `CC1(C)\N=C(N)/N=C(/N)N1C2=CC=C(Cl)C=C2` [Cycloguanil HCl], the “IC50 of cell viability” value is above 46 µM.

Consider `CCOC(=O)c1cncn1[C@@H](C)c1ccccc1` [Etomidate], for which the “IC50 of cell viability” value was above 46 µM.

Consider `N[S+](=O)([O-])c1cc(C(=O)O)c(NCc2ccco2)cc1Cl` [Furosemide], for which the “IC50 of cell viability” value is above 46 µM.

In the case of `OC(=O)C/1=C/C(=O)C2=C(O1)C=CC=C2` [CHROMOCARB], the “IC50 of cell viability” value was above 46 µM.

In the case of `N#CN` [Cyanamide], the “IC50 of cell viability” value was above 46 µM.

Consider `CN(C)CCOC(=O)COc1ccc(Cl)cc1` [Meclofenoxate hydrochloride], for which the “IC50 of cell viability” value was above 46 µM.

Turning to `O=[N+]([O-])c1ccc(Oc2ccc(N=C=S)cc2)cc1` [Nitroscanate], the “IC50 of cell viability” value was above 46 µM.

Consider `C=CCN.Cl.ClC[C@H]1CO1` [Sevelamer hydrochloride], for which the “IC50 of cell viability” value was above 46 µM.

Turning to `CS(=O)(=O)NC(=O)CCC/C=C\C[C@H]1C(=O)C[C@@H](O)[C@@H]1/C=C/[C@@H](O)COc1ccccc1` [Sulprostone], the “IC50 of cell viability” value was above 46 µM.

In the case of `CCC1OC(=O)C[C@@H](O)[C@H](C)[C@@H](OC2OC(C)CC(N(C)C)C2O)[C@@H](CC=O)C[C@@H](C)C(=O)/C=C/[C@]2(C)OC2C1C` (stereo partly drawn) [ROSAMICIN], the “IC50 of cell viability” value is above 46 µM.

As for `CC12CCC(CC1)C(C)(C)O2` [Eucalyptol], the “IC50 of cell viability” value was above 46 µM.

For `CCC(C)C1OC2(C=CC1C)CC1CC(CC=C(C)C(OC3CC(OC)C(OC4CC(OC)C(NC(C)=O)C(C)O4)C(C)O3)C(C)C=CC=C3COC4C(O)C(C)=CC(C(=O)O1)C34O)O2` (stereo not drawn) [Eprinomectin B1a], the “IC50 of cell viability” value is above 46 µM.

Consider `CC(C)(Oc1ccc(CCNC(=O)c2ccc(Cl)cc2)cc1)C(=O)O` [Bezafibrate], for which the “IC50 of cell viability” value is above 46 µM.

Take `CC1(C)CCC(NC(=O)[C@@H](N)CCC(=O)O)CC1` [CR 2249]: the “IC50 of cell viability” value was above 46 µM.

On to `C[C@H](CSC(=O)c1ccccc1)C(=O)N1C[C@@H](Sc2ccccc2)C[C@H]1C(=O)O` [ZOFENOPRIL], for which the “IC50 of cell viability” value is above 46 µM.

For `Cc1cccc(Nc2ccncc2[S+](=O)([O-])NC(=O)NC(C)C)c1` [Torsemide], the “IC50 of cell viability” value is above 46 µM.

Turning to `C=CCc1ccccc1OCC(O)CNC(C)C` (stereo not drawn) [ALPRENOLOL], the “IC50 of cell viability” value is above 46 µM.

For the molecule `C[C@H]1COc2c(C3(N)CC3)c(F)cc3c(=O)c(C(=O)O)cn1c23` [PAZUFLOXACIN], the “IC50 of cell viability” value was above 46 µM.

For `C#CCN(C)Cc1ccccc1` [Pargyline hydrochloride], the “IC50 of cell viability” value was above 46 µM.

For the molecule `O=S([O-])CNc1ccc([S+](=O)([O-])c2ccc(NCS(=O)[O-])cc2)cc1` [Adesulfone sodium], the “IC50 of cell viability” value is above 46 µM.

`O=C1/C(=C2\Nc3ccccc3C2=O)Nc2ccccc21` [INDIGO]: the “IC50 of cell viability” value is above 46 µM.
